According to US20260103479A1, “PRODRUGS OF OPICAPONE” (BIAL- PORTELA & CA, S.A., priority 2022, published 2026):
≈ marks a conversion by molar mass, not a printed value. Counter-ions that a name gives are not always drawn.

Key:
[1] = physchem; conditions: water, thermodynamic from solid, Solubility in pure water
Protocol: (§1) The solubility studies were completed at room temperature. For the determination of the solubility increasing amounts of distilled water was added to 5 mg of the test sample until its complete dissolution of the product observed by naked eye.

[2] = Aqueous solubility in distilled (pure) water at room temperature; conditions: thermodynamic from solid
Protocol: as §1

Molecule Cc1c(Cl)c(C)[n+]([O-])c(Cl)c1-c1noc(-c2cc(OP(=O)(O)O)c(O)c([N+](=O)[O-])c2)n1 [Compound 3, 2,5-dichloro-3-(5-(4-hydroxy-3-nitro-5-(phosphonooxy)phenyl)-1,2,4-oxadiazol-3-yl)-4,6-dimethylpyridine 1-oxide, triammonia salt] has a solubility [1] greater than 500 µg/mL.

In the case of Cc1c(Cl)c(C)[n+]([O-])c(Cl)c1-c1noc(-c2cc(O)c(O)c([N+](=O)[O-])c2)n1 [Opicapone, 2,5-dichloro-3-(5-(3,4-dihydroxy-5-nitrophenyl)-1,2,4-oxadiazol-3-yl)-4,6-dimethylpyridine 1-oxide], the solubility [2] is reported as 23 to 36 µg/mL (≈ 55.7 to 87.1 µM).
